Read-outs that look alike come from different tables or passages of the source.

The target of test [1] is T1, BSA (Bos taurus, UniProt P02769).
T1 construct: purchased HiMedia (Mumbai, India)
The experiment in a line: BSA tryptophan fluorescence quenching. It is filed as binding, bovine. The text has this: (§1) The obtained results confirmed the interaction of the ligands and complexes with serum albumins. The absorption spectra of the serum albumins in the absence and presence of ligands H2L^1–4 and the complexes 1–4 are given in Fig. S29 in the ESI. ^† On adding ligands and complexes 1–4 to albumins, the absorbance intensity of serum albumins was decreased with a red shift of 2 nm. The observed changes indicated a static quenching mechanism of serum albumins by the ligands and complexes (1–4). To obtain a quantitative insight into the quenching progression, the Stern–Volmer quenching constant (KSV) and the quenching constant (Kq) were calculated from the Stern–Volmer equation using the Io/ICorrversus [Q] plot (Table 4).[53] The observed linearity in the plots (Fig. 13) indicated the ability of the compounds to quench the emission intensity of serum albumins and the order of quenching constant of the compounds is complex 3 > complex 2 > complex 1 > complex 4 > H2L^3 > H2L^2 > H2L^1 > H2L^4.
(§2) Furthermore, the equilibrium binding constant and number of binding sites were evaluated by using the Scatchard equation. The Kbin values were derived from the graph between log[(Fo − F)/F] and log[Q] From the results, we confirmed that the Ru(II) complexes having a large hydrophobic area can interact more efficiently than the ligands with serum albumins via a static pathway. The higher binding affinity of the complexes over the ligands may be due to the efficient binding of protein moiety with the complexed metal ions. Here, the binding affinities of the complexes with serum albumins followed the same order as those with DNA binding studies, complex 3 > complex 2 > complex 1 > complex 4 > H2L^3 > H2L^2 > H2L^1 > H2L^4. Variation in the binding affinity of the compounds with serum albumins depends on the electron-donating ability of the ligand, i.e. the substitution on the N-terminal nitrogen atom. The binding capability of the compounds to serum albumins increased with the increase in electron-donating ability of the substituent on the terminal nitrogen of the coordinated thiosemicarbazone ligand. The obtained quenching constant and binding constant values of these new cyclometallated ruthenium(II) complexes agree well with those reported for other ruthenium(II) complexes.[31,44,54–56] […]
(§3) Serum albumin binding study
(§4) Bovine Serum Albumin (BSA) and human serum albumin were purchased from Hi Media, The protein binding study was performed by tryptophan fluorescence quenching experiments using bovine serum albumin (BSA, 10 µM) or human serum albumin (HSA, 10 µM) as the substrate in phosphate buffer (pH= 7.2). Quenching of the emission intensity of tryptophan residues of BSA at 346 nm (excitation wavelength at 280 nm)/ HSA at 345 nm (excitation wavelength at 290 nm) was monitored using ligands and complexes as quenchers with increasing concentration (10-100µM). Synchronous fluorescence spectra of BSA or HSA with various concentrations of the complexes were obtained from 300 to 400 nm when ∆λ = 60 nm and from 290 to 500 nm when ∆λ = 15 nm. For synchronous fluorescence spectra, the same concentrations of serum albumins and the compounds were also used and the spectra were measured at two different Δλ values (difference between the excitation and emission wavelengths of BSA), such as 15 and 60 nm. Fluorescence and synchronous measurements were performed using a 1 cm quartz cell on a JASCO FP 6600 spectrofluorimeter.
(§5) The quenching data can be analyzed according to the Stern-Volmer equation, […]
(§6) Io/Icorr =K SV[Q]+1 Eq (S2) where Iₒ is the emission intensity in the absence of compound, Icorr is the corrected emission intensity in the presence of compound, KSV is the quenching constant and [Q] is the concentration of the compound.
(§7) In order to correct the inner filter effect, the following equation used Icorr = Iobs*10 (Aexc+Aem)/2 where Icorr is the corrected fluorescence value, Iobs the measured fluorescence value, Aexc is […]

The target in test [2] is T2, HSA (Homo sapiens, UniProt P02768).
T2 construct: purchased HiMedia (Mumbai, India)
T2 sequence (P02768 25-609): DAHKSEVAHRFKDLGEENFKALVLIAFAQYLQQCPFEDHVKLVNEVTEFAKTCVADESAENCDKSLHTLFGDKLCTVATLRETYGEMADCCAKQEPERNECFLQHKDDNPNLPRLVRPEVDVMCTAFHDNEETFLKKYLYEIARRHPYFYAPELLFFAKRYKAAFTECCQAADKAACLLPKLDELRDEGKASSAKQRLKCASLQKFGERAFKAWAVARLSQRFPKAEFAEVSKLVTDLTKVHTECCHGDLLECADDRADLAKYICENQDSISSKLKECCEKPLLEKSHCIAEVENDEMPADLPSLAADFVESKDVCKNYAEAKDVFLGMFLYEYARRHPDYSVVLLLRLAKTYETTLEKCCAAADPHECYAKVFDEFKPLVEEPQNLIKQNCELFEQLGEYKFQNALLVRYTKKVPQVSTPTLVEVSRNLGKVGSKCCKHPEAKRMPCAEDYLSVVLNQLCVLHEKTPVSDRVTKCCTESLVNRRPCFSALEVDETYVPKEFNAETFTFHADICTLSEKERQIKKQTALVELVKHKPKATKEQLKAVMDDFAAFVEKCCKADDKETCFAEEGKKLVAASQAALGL
In words: HSA tryptophan fluorescence quenching. The following applies: for Kd: read-out: Binding constant Kbin (converted). Type of test: binding.
From the text: as §1, §2, §3, §4, §5, §6, §7

The subject of test [3] is S. pneumonie. In words: In vitro antibacterial assay (zone of inhibition, MIC). It is filed as cell-based, Streptococcus pneumonie. Conditions: for zone of inhibition at 50 µg/mL / zone of inhibition at 100 µg/mL: Streptococcus. Here is the method:
(§8) The free ligands and their cyclometallated ruthenium(II) carbonyl complexes were screened for their in vitro antimicrobial activity against certain pathogenic bacterial and fungal species at three different concentrations using disc diffusion method.
(§9) Antimicrobial activities of [RuHClCO(PPh3)3], ligands H2L^1–4 and new organometallic Ru(II) complexes (1–4) were evaluated by agar well diffusion method[76] as reported, by taking Staphylococcus aureus, Streptococcus pneumonie, Pseudomonas aeruginosa, Salmonella paratyphi and fungus such as Candida albicans, Trichophyton rubrum, Aspergillus niger, Aspergillus fumigatus and Candida tropicalis. The above said all test organisms were obtained from the MTCC, Chandigarh, India and Microbiological laboratory, Coimbatore, Tamil Nadu, India. The antimicrobial activity of the test compounds was checked with various concentrations (25 μg ml^−1, 50 μg ml^−1 and 100 μg ml^−1) against all the test pathogens. Gentamicin and ketoconazole were used as positive controls to study the antibacterial and antifungal activities respectively. Each experiment was performed in triplicate and the results are represented as average zone of inhibition and minimum inhibitory concentration of all the test pathogens.

In test [4] the test system is P. aeruginosa. Described as above. It is filed as cell-based, Pseudomonas aeruginosa. The following applies: for zone of inhibition at 50 µg/mL / zone of inhibition at 100 µg/mL: Pseudomonas aeruginosa. Here is the method: as §8, §9
For test [5], the system named is C. albicans. The experiment in a line: In vitro antifungal assay (zone of inhibition, MIC). The following applies: for zone of inhibition at 50 µg/mL / zone of inhibition at 100 µg/mL: Candida albicans. It is filed as cell-based, Candida albicans. The protocol:
as §8, §9

The test system of test [6] is human breast cancer cell line MCF-7. In words: MTT cytotoxicity assay. Type of test: cell-based. The following applies: read-out: IC50 values MCF-7. The text has this: (§10) The DNA/protein binding studies, antioxidant and antimicrobial studies had shown that the ligands and ruthenium(II) complexes studied here have therapeutic potentials and were subjected to study their anticancer activity. A number of coumarin derivatives have shown considerable anticancer activity against a number of cell lines. All the 3-acetyl-7-methoxy-coumarin-4(N)-substituted thiosemicarbazone ligands, metal precursor [RuHClCO(PPh3)3] and their new cyclometallated Ru(II) complexes were assessed for their cytotoxicity with two human derived cell lines namely human lung carcinoma (A549) and human breast cancer cells (MCF-7) by using MTT assay. For comparison purpose, cisplatin was used as a positive control under identical conditions.
(§11) Cytotoxic activity of the compounds was tested with human lung cancer cell lines A549, human breast cancer cell lines MCF-7 and human normal keratinocyte cells (HaCaT) by using MTT assay, which was done according to the earlier literature methods[77] and IC50 values obtained from nonlinear regression using GraphPad Prism 5.[78] The LDH release[79] and NO release[80] assays of the compounds was evaluated by the earlier reported methods.
A general note: Tetrazolium assays rely on reduction of a dye to a coloured formazan, in cell work by metabolically active cells.

Test [7] concerns human lung carcinoma cancer cell line A549. The experiment in a line: MTT cytotoxicity assay. Type of test: cell-based. Conditions: read-out: IC50 values A549.
From the text: as §10, §11

T1 sequence (P02769 25-607): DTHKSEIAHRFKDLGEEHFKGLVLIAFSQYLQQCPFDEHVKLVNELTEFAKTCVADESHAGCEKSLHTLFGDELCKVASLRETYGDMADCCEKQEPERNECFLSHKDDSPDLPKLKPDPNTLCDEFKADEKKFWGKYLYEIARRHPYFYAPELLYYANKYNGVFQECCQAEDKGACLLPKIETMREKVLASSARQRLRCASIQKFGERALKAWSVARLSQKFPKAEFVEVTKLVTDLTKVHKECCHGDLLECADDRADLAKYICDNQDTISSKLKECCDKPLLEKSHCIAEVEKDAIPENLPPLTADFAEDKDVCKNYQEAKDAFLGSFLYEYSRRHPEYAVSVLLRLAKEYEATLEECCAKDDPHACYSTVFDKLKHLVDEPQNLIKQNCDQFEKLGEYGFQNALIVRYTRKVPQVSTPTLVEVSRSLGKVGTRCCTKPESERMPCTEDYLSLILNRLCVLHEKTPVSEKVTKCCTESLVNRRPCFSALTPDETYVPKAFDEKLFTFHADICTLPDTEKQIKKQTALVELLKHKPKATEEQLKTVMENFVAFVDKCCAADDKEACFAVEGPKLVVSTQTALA

On to `COc1ccc2[c]3c(c(=O)oc2c1)C(C)=[N+]1N=C(Nc2ccccc2)[S][Ru-4]31([C]#[O+])([P+](c1ccccc1)(c1ccccc1)c1ccccc1)[P+](c1ccccc1)(c1ccccc1)c1ccccc1` [Complex 4, [Ru(7MAC-ptsc)(CO)(PPh3)2]], for which the figures for the Quenching constant kq in test [1] (BSA) and in test [2] (HSA) were 1.454 ± 0.030 × 10^12 M^−1 s^−1 and 0.675 ± 0.008 × 10^12 M^−1 s^−1, respectively. In addition, the “Stern–Volmer KSV” value is reported as 1.454 ± 0.030 × 10^4 M^−1 in test [1] (BSA) and 0.675 ± 0.008 × 10^4 M^−1 in test [2] (HSA). For the same compound, the “number of binding sites n” value in test [1] (BSA) is 1.0486 ± 0.019; in test [2] (HSA) it was 0.9118 ± 0.025. For the same compound, the “Binding constant Kbin” value in test [1] (BSA, Scatchard equation) is on record as 2.178 ± 0.019 × 10^4 M^−1; in test [2] (HSA, Scatchard equation), 0.297 ± 0.024 × 10^4 M^−1. The “quenching of BSA fluorescence intensity at 346 nm” value in test [1] (compounds 10–100 μM, BSA 10 μM) is 58.68%. The “decrease of HSA fluorescence intensity” value in test [2] (compounds 10–100 μM, HSA 10 μM) is listed as 39.80%. In addition, the “Minimum inhibitory concentration (MIC); head: IC50 VALUES” in test [3] (S. pneumonie) stood at 15.89 ± 0.12 µM; in test [4] (P. aeruginosa), 15.66 ± 0.16 µM; in test [5] (C. albicans) it was 14.65 ± 0.13 µM. Besides, the Zone of inhibition worked out at 12.31±0.48 mm in test [3] (S. pneumonie, 50 µg/ml); 16.54±0.12 mm in test [3] (S. pneumonie, 100 µg/ml); 12.33±0.53 mm in test [4] (P. aeruginosa, 50 µg/ml); 16.85±0.62 mm in test [4] (P. aeruginosa, 100 µg/ml); 12.49±0.14 mm in test [5] (C. albicans, 50 µg/ml); 17.19±0.66 mm in test [5] (C. albicans, 100 µg/ml). Besides, the IC50 – broadly, the concentration needed to halve the response being measured – in test [6] (MTT, 48 h) came out at 3.02 ± 0.05 µM; in test [7] (MTT, 48 h) it was 3.05 ± 0.12 µM.
On to `COc1ccc2cc(C(C)=NNC(N)=S)c(=O)oc2c1` [H2L^1, ((1E)-1-(1-(7-methoxy-2-oxo-2H-chromen-3-yl)ethylidene)thiosemicarbazone)], for which the Kd in test [1] is 507 µM; in test [2] (HSA, Scatchard equation), 477 µM. The zone of inhibition – broadly, the size of the clear area around the sample on an inoculated plate – at 50 µg/mL in test [3] worked out at 12.38 ± 0.12 mm; in test [4], 13.2 ± 0.41 mm; in test [5], 11.2 ± 0.14 mm. Besides, the zone of inhibition at 100 µg/mL in test [3] amounted to 16.4 ± 0.31 mm; in test [4] it was 18.1 ± 0.24 mm; in test [5], 17 ± 0.91 mm. Also, the IC50 in test [6] (Homo sapiens, MCF7, 48 h) turned out to be 13.1 ± 0.29 µM; in test [7] (Homo sapiens, A549, 48 h), 12.6 ± 0.17 µM.
Take `CNC(=S)NN=C(C)c1cc2ccc(OC)cc2oc1=O` [H2L^2, ((1E)-1-(1-(7-methoxy-2-oxo-2H-chromen-3-yl)ethylidene) 4(N)-methylthiosemicarbazone)]: the Kd in test [1] was 333 µM; in test [2] (HSA, Scatchard equation), 392 µM. Also, the zone of inhibition at 50 µg/mL in test [3] is 12.1 ± 0.33 mm; in test [4], 12.6 ± 0.37 mm; in test [5], 13.38 ± 0.12 mm. Besides, the zone of inhibition at 100 µg/mL is 17.3 ± 0.41 mm in test [3], 17.7 ± 0.45 mm in test [4] and 18.17 ± 0.15 mm in test [5]. For the same compound, the IC50 in test [6] (Homo sapiens, MCF7, 48 h) worked out at 12.1 ± 0.32 µM; in test [7] (Homo sapiens, A549, 48 h), 12.1 ± 0.16 µM.
For `CCNC(=S)NN=C(C)c1cc2ccc(OC)cc2oc1=O` [H2L^3, ((1E)-1-(1-(7-methoxy-2-oxo-2H-chromen-3-yl)ethylidene) 4(N)-ethylthiosemicarbazone)], the Kd in test [1] is 70.9 µM; in test [2] (HSA, Scatchard equation), 382 µM. Moreover, the zone of inhibition at 50 µg/mL amounted to 11.2 ± 0.15 mm in test [3], 12.5 ± 0.34 mm in test [4] and 11.3 ± 0.12 mm in test [5]. The zone of inhibition at 100 µg/mL in test [3] was 17.2 ± 0.21 mm; in test [4], 16.4 ± 0.23 mm; in test [5] it was 18.2 ± 0.22 mm. In addition, the IC50 in test [6] (Homo sapiens, MCF7, 48 h) was 11.3 ± 0.21 µM; in test [7] (Homo sapiens, A549, 48 h), 11.6 ± 0.15 µM.
As for `COc1ccc2cc(/C(C)=N\NC(=S)Nc3ccccc3)c(=O)oc2c1` [H2L^4, ((1E)-1-(1-(7-methoxy-2-oxo-2H-chromen-3-yl)ethylidene) 4(N)-phenylthiosemicarbazone)], the Kd in test [1] was 900 µM; in test [2] (HSA, Scatchard equation) it was 858 µM. Moreover, the zone of inhibition at 50 µg/mL in test [3] amounted to 12.2 ± 0.43 mm; in test [4] it was 12.1 ± 0.32 mm; in test [5], 12.3 ± 0.21 mm. Moreover, the zone of inhibition at 100 µg/mL was 18.1 ± 0.22 mm in test [3], 17.5 ± 0.65 mm in test [4] and 17.19 ± 0.15 mm in test [5]. The IC50 came out at 13.1 ± 0.25 µM in test [6] (Homo sapiens, MCF7, 48 h) and 13.8 ± 0.18 µM in test [7] (Homo sapiens, A549, 48 h).

(Values after publication PMC9077138, “An investigation on 3-acetyl-7-methoxy-coumarin Schiff bases and their Ru(II) metallates with potent antiproliferative activity and enhanced LDH and NO release” (RSC Advances, 2018).)
